pIC50: −log10 of the molar value. Like-named read-outs stand apart in the source and are kept apart here.
Assays:
[1] = target: T1, Recombinant STAT3 protein (STAT3 (G127-I722)) (Homo sapiens, UniProt P40763); assay: STAT3 Fluorescence Polarization (FP) Assay; format: binding; conditions: STAT3 (G127-I722) 25 nM, probe 5-FAM-GpYLPQTV-NH2 2 nM, 45-minute incubation; read-out: STAT3 (FP assay IC50 class)
T1 construct: Recombinant STAT3 protein (STAT3 (G127-I722))
How it was run: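 Displacement of a 2 nM 5-FAM-labelled pY peptide (GpYLPQTV) from 25 nM recombinant STAT3 (G127-I722) was monitored by fluorescence polarization. Incubation lasted 45 min at room temperature in pH 7.4 HEPES buffer containing 1% DMSO.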

[2] = target: T2, Recombinant STAT6 protein (STAT6 (W123-T658)) (Homo sapiens, UniProt P42226); assay: STAT6 Fluorescence Polarization (FP) Assay; format: binding; conditions: STAT6 (W123-T658) 250 nM, 45-minute incubation, read-out: STAT6 (FP assay IC50 class)
T2 construct: Recombinant STAT6 protein (STAT6 (W123-T658))
T2 sequence (P42226 123-658): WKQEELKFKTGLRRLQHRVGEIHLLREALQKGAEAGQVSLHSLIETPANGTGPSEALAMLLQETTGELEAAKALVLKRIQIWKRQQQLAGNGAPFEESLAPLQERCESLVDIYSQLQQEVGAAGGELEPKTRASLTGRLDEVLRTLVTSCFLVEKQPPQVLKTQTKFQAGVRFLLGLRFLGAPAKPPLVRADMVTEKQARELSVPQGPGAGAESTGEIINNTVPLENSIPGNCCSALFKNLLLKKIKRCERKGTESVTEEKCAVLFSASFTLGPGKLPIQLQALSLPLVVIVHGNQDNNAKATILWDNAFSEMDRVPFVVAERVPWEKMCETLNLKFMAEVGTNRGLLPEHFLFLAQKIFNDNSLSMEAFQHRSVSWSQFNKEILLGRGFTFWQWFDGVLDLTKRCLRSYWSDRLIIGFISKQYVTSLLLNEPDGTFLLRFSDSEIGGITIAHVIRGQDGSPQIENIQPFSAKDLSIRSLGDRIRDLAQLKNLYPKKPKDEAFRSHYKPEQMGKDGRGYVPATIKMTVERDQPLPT
How it was run: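 Serially diluted compounds received a premix of STAT6 (W123-T658, 250 nM) and 5-FAM peptide probe (2 nM) in pH 7.4 HEPES buffer containing DTT and Tween 20. Following 45 min at room temperature, FP was recorded. IC50s were fitted by nonlinear regression; values are binned A (≤300 nM), B (>300-3000 nM), C (>3-30 μM), D (>30 μM).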

T1 sequence (P40763 127-722): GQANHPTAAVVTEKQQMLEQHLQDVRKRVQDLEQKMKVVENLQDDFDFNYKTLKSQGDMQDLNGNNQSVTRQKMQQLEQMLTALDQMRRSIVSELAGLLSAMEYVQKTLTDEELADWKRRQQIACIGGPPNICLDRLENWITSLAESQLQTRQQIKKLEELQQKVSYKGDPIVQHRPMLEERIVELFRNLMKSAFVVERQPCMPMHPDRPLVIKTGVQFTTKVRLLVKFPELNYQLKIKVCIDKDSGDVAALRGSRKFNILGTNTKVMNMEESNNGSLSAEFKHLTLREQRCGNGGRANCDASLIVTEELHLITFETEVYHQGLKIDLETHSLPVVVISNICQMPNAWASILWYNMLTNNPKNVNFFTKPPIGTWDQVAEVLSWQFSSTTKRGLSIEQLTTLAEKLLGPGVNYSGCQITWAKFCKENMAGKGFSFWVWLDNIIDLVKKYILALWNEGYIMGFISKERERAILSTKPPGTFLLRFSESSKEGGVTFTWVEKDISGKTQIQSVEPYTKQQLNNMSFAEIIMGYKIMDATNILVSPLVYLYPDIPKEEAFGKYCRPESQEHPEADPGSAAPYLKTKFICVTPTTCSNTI

Row | pIC50 [1] | pIC50 ([2]; probe 5-FAM-Ap[…]-NH2 2 nM) | SMILES | pIC50 ([2]; probe 5-FAM-ApYKPFQDLI-NH2 2 nM)
1 | 6.00 to 7.00 | 4.52 to 5.52 | CN1CCN(c2ccncc2C2CN(C(=O)[C@@H]3CC[C@@H]4CCC[C@H](NC(=O)c5cc6cc([C@@H](F)P(=O)(O)O)ccc6s5)C(=O)N43)C2)C1=O [Compound 851, ((S)-fluoro(2-(((3S,6S,9aS)-3-(3-(4-(3-methyl-2-oxoimidazolidin-1-yl)pyridin-3-yl)azetidine-1-carbonyl)-5-oxooctahydro-1H-pyrrolo[1,2-a]azepin-6-yl)carbamoyl)benzo [b]thiophen-5-yl)methyl) phosphonic acid] | 
2 | > 7.00 | 5.52 to 6.52 | O=C(N[C@H]1CCC[C@H]2CC[C@@H](C(=O)N3CC(c4cnccc4N4CC(OC(F)F)C4)C3)N2C1=O)c1cc2cc([C@@H](F)P(=O)(O)O)ccc2s1 [Compound 852, ((S)-(2-(((3S,6S,9aS)-3-(3-(4-(3-(difluoromethoxy)azetidin-1-yl)pyridin-3-yl)azetidine-1-carbonyl)-5-oxooctahydro-1H-pyrrolo[1,2-a]azepin-6-yl)carbamoyl)benzo [b]thiophen-5-yl)fluoromethyl) phosphonic acid] | 
3 | 5.00 to 6.00 | 4.52 to 5.52 | O=C(N[C@H]1CCC[C@H]2CC[C@@H](C(=O)N3CC(c4cnccc4-n4ccnc4)C3)N2C1=O)c1cc2cc([C@@H](F)P(=O)(O)O)ccc2s1 [Compound 853, ((S)-(2-(((3S,6S,9aS)-3-(3-(4-(1H-imidazol-1-yl)pyridin-3-yl)azetidine-1-carbonyl)-5-oxooctahydro-1H-pyrrolo[1,2-a]azepin-6-yl)carbamoyl)benzo [b]thiophen-5-yl)fluoromethyl) phosphonic acid] | 
4 | > 7.00 | 4.52 to 5.52 | COCCN(C)c1ccncc1C1CN(C(=O)[C@@H]2CC[C@@H]3CCC[C@H](NC(=O)c4cc5cc([C@@H](F)P(=O)(O)O)ccc5s4)C(=O)N32)C1 [Compound 855, ((S)-fluoro(2-(((3S,6S,9aS)-3-(3-(4-((2-methoxyethyl) (methyl)amino)pyridin-3-yl)azetidine-1-carbonyl)-5-oxooctahydro-1H-pyrrolo[1,2-a]azepin-6-yl)carbamoyl)benzo [b]thiophen-5-yl)methyl) phosphonic acid] | 
5 | > 7.00 | 5.52 to 6.52 | COCC1CN(c2ccncc2C2CN(C(=O)[C@@H]3CC[C@@H]4CCC[C@H](NC(=O)c5cc6cc([C@@H](F)P(=O)(O)O)ccc6s5)C(=O)N43)C2)C1 [Compound 856, ((S)-fluoro(2-(((3S,6S,9aS)-3-(3-(4-(3-(methoxymethyl)azetidin-1-yl)pyridin-3-yl)azetidine-1-carbonyl)-5-oxooctahydro-1H-pyrrolo[1,2-a]azepin-6-yl)carbamoyl)benzo [b]thiophen-5-yl)methyl) phosphonic acid] | 
6 | > 7.00 | 5.52 to 6.52 | COC1CN(c2ccncc2C2CN(C(=O)[C@@H]3CC[C@@H]4CCC[C@H](NC(=O)c5cc6cc([C@@H](F)P(=O)(O)O)ccc6s5)C(=O)N43)C2)C1 [Compound 859, ((S)-fluoro(2-(((3S,6S,9aS)-3-(3-(4-(3-methoxyazetidin-1-yl)pyridin-3-yl)azetidine-1-carbonyl)-5-oxooctahydro-1H-pyrrolo[1,2-a]azepin-6-yl)carbamoyl)benzo [b]thiophen-5-yl)methyl) phosphonic acid] | 
7 | 6.00 to 7.00 | 4.52 to 5.52 | C[C@@H]1COCCN1c1ccncc1C1CN(C(=O)[C@@H]2CC[C@@H]3CCC[C@H](NC(=O)c4cc5cc(CP(=O)(O)O)ccc5s4)C(=O)N32)C1 [Compound 860, ((2-(((3S,6S,9aS)-3-(3-(4-((R)-3-methylmorpholino)pyridin-3-yl)azetidine-1-carbonyl)-5-oxooctahydro-1H-pyrrolo[1,2-a]azepin-6-yl)carbamoyl)benzo [b]thiophen-5-yl)methyl) phosphonic acid] | 
8 | > 7.00 | 4.52 to 5.52 | CN(C)c1ncncc1C1CN(C(=O)[C@@H]2CC[C@@H]3CCC[C@H](NC(=O)c4cc5cc(CP(=O)(O)O)ccc5s4)C(=O)N32)C1 [Compound 863, ((2-(((3S,6S,9aS)-3-(3-(4-(dimethylamino)pyrimidin-5-yl)azetidine-1-carbonyl)-5-oxooctahydro-1H-pyrrolo[1,2-a]azepin-6-yl)carbamoyl)benzo [b]thiophen-5-yl)methyl) phosphonic acid] | 
9 | < 5.00 | 4.52 to 5.52 | O=C(N[C@H]1CCC[C@H]2CC[C@@H](C(=O)N3CC(c4cccnc4)C3)N2C1=O)c1cc2cc(CP(=O)(O)O)c(F)cc2[nH]1 [Compound 864, ((6-fluoro-2-(((3S,6S,9aS)-5-oxo-3-(3-(pyridin-3-yl)azetidine-1-carbonyl)octahydro-1H-pyrrolo[1,2-a]azepin-6-yl)carbamoyl)-1H-indol-5-yl)methyl) phosphonic acid] | 
10 | 6.00 to 7.00 | ≥ 6.52 | O=C(N[C@H]1CCCC[C@H]2CC[C@@H](C(=O)N3CCC(c4cc[nH]c(=O)c4)C3)N2C1=O)c1ccc2ccc(C(F)(F)P(=O)(O)O)cc2c1 (stereo partly drawn) [Compound 866, (difluoro(7-(((3S,6S,10aS)-5-oxo-3-(3-(2-oxo-1,2-dihydropyridin-4-yl)pyrrolidine-1-carbonyl)decahydropyrrolo[1,2-a]azocin-6-yl)carbamoyl)naphthalen-2-yl)methyl) phosphonic acid] | 
11 | > 7.00 | 4.52 to 5.52 | O=C(N[C@H]1CCC[C@H]2CC[C@@H](C(=O)N3CC(c4cccnc4)C3)N2C1=O)c1cc2cc([C@H](F)P(=O)(O)O)ccc2s1 [Compound 870, ((R)-fluoro(2-(((3S,6S,9aS)-5-oxo-3-(3-(pyridin-3-yl)azetidine-1-carbonyl)octahydro-1H-pyrrolo[1,2-a]azepin-6-yl)carbamoyl)benzo [b]thiophen-5-yl)methyl) phosphonic acid] | 
12 | 5.00 to 6.00 | ≥ 6.52 | O=C(N[C@H]1CCCC[C@H]2CC[C@@H](C(=O)N3CC(c4cc[nH]c(=O)c4)CC34CC4)N2C1=O)c1ccc2ccc(C(F)(F)P(=O)(O)O)cc2c1 (stereo partly drawn) [Compound 877, (difluoro(7-(((3S,6S,10aS)-5-oxo-3-(6-(2-oxo-1,2-dihydropyridin-4-yl)-4-azaspiro[2.4]heptane-4-carbonyl)decahydropyrrolo[1,2-a]azocin-6-yl)carbamoyl)naphthalen-2-yl)methyl) phosphonic acid] | 
13 | 5.00 to 6.00 | ≥ 6.52 | O=C(N[C@H]1CCCC[C@H]2CC[C@@H](C(=O)N3CC(c4ccccc4)CC34CC4)N2C1=O)c1ccc2ccc(C(F)(F)P(=O)(O)O)cc2c1 (stereo partly drawn) [Compound 880, (difluoro(7-(((3S,6S,10aS)-5-oxo-3-(6-phenyl-4-azaspiro[2.4]heptane-4-carbonyl)decahydropyrrolo[1,2-a]azocin-6-yl)carbamoyl)naphthalen-2-yl)methyl) phosphonic acid] | 

Row | SMILES | pIC50 [1] | pIC50 ([2]; probe 5-FAM-Ap[…]-NH2 2 nM) | pIC50 ([2]; probe 5-FAM-ApYKPFQDLI-NH2 2 nM)
14 | O=C(N[C@H]1CCC[C@H]2CC[C@@H](C(=O)N3CC(c4cccnc4)C3)N2C1=O)c1cc2cc([C@@H](F)P(=O)(O)O)ccc2s1 [Compound 873, ((S)-fluoro(2-(((3S,6S,9aS)-5-oxo-3-(3-(802yridine-3-yl)azetidine-1-carbonyl)octahydro-1H-pyrrolo[1,2-a]azepin-6-yl)carbamoyl)benzo [b]thiophen-5-yl)methyl) phosphonic acid] | > 7.00 |  | 4.52 to 5.52
